Experimental data reported in article PMC3058535 (International Journal of Nanomedicine, 2011).

molecular target: integrin αvβ3 (Homo sapiens, UniProt P05106+P06756); test: Competitive ELISA vs NS–RGDfK; type: binding; details: NS–RGDfK 0.5 OD; starting 50 μM

Molecule | competition with NS–RGDfK for binding to integrin αvβ3
CC(C)(CN)CNC(=O)NCCS(=O)(=O)N[C@@H](CNC(=O)c1ccc(OCCNC2=NCCCN2)cc1)C(=O)O.Cl [IAC, 4-[2-(3,4,5,6-tetrahydropyrimidin-2-ylamino)-ethyloxy]benzoyl-2-(S)-[N-(3-aminoneopenta-1-carbamyl)]-aminoethylsulfonylamino-h-alanine hydrochloride] | did compete with NS–RGDfK for binding to the integrin
N=C(N)NCCC[C@@H]1NC(=O)[C@H](CCCCN)NC(=O)[C@@H](Cc2ccccc2)NC(=O)[C@H](CC(=O)O)NC(=O)CNC1=O [RGDfK, cyclo(Arg-Gly-Asp-D-Phe-Lys)] | did compete with NS–RGDfK for binding to the integrin
cyclo-(Arg-Ala-Asp- D-Phe-Lys) (head to tail) [RADfK] | did not have any detectable competition with NS–RGDfK
